Assay results reported in patent US4588725A, “2-piperazinyl-quinazoline derivatives and pharmaceutical compositions containing them” (Sandoz Ltd., priority 1982, dated 1986).
pIC50: −log10 of the molar value.

What was measured:
locomotion = assay: inhibition of locomotion in mice; assay type: in vivo, mice (male, OF-1); conditions: Mus musculus, po, minimum dose with significant inhibition, p.o., 1 hour after administration, read-out: Locomotor inhibition EDmin
Description: In particular, the compounds of formula I are useful as neuroleptic agents in the treatment of e.g. psychotic disorders such as schizophrenia, as indicated in standard tests, e.g. by an inhibition of locomotion in mice. In this test groups of 3 male mice (18-24 g, OF-1, Sandoz Basle) received 3.2, 10, 32, 100 and […]. of the test drug. 1 hour after drug administration the mice were observed individually and their locomotion compared with that of control. The locomotion of the animals was observed and the EDmin (the minimum dose at which significant inhibition was observed) determined.

[1] = molecular target: T1, 3H-spiperone binding sites (Bos taurus, UniProt P20288); assay: 3H-spiperone binding in calf brain striatal tissue; conditions: for pIC50: calf striatal membranes, 0.1 nM 3H-spiperone, 5×10^-7 M cinanserin, pH 7.7, 40 min room temperature, read-out: Receptor binding IC50 3H-spiperone; for effect in the 3H-spiperone binding test compared with Clozapine: in words, versus Clozapine
T1 construct: fresh calf brain striatal tissue was homogenized; from tissue; host or cells: calf brain striatum, membranes
Description: The compounds of the invention bind further on ^3 H-spiperone binding sites in the brain [modified method of J. Leysen et al., Biochem. Pharmac. […] The test was performed as follows: fresh calf brain striatal tissue was homogenized in the 25 fold volume of tris buffer (pH 7.4, 50 mM, 120 mM sodium chloride) and centrifuged. The pellets were suspended in the 22 fold volume of tris buffer, incubated for 15 minutes at 37° C. and centrifuged. The pellets were suspended in the 300 fold volume of tris buffer. […] After incubation for 40 minutes at room temperature, the assay mixtures were rapidly filtered through Whatman GF/B filter, the filters washed twice with 5 ml of ice cold tris buffer and scintillation-counted.

[2] = system: sleep/wake cycle (sleep phase II, paradoxical sleep); assay: sleep/wake cycle in rats; assay type: in vivo
Description: Furthermore, the compounds on administration of 2-20 mg/kg p.o. to rats increase the sleep phase II and decrease the paradoxical sleep in the sleep/wake cycle carried out in accordance with the principles of H. Kleinlogel et al., European J. Pharmacol. 33, 159-163 (1975). […]

α1-receptors = assay: 3H-Prazosin binding assay for α1-receptors in calf brain cortex tissue; conditions: calf brain cortex membranes, 0.3 nM 3H-Prazosin, pH 7.7, 40 min room temperature; read-out: IC50 (inhibition of specific 3H-Prazosin binding)
Description: The compounds of the invention are furthermore useful as anti-hypertensive agents, as indicated in standard tests, for example in the ^3 H-Prazosin binding assay for α1 -receptors [modified method of Greengrass P., et al., Eur. J. Pharmac. 55, 323-326 (1979)]. The test was performed as follows:
Fresh calf brain cortex tissue is homogenized in a 20 fold volume of Tris-HCl buffer (50 mM, pH 7.7), using a Polytron PT 20, and centrifuged at 30,000×g for 25 min. The pellets are resuspended in a 13 fold volume of the same buffer, incubated for 15 min at 37° C., and recentrifuged at 50,000×g for 11 min. The pellets of this centrifugation are frozen at -20° C. and resuspended in a 60 fold volume of the same buffer as above before use for the binding experiment. The composition of the assay mixtures (total volume=2 ml) is as follows: 50 mM Tris-HCl pH 7.7, membranes corresponding to 30 mg of original tissue weight, and 0.3 nM ^3 H-Prazosin. The assays for the definition of nonspecific binding additionally contain phentolamine at a concentration of 10 μM. To assess the potency of drugs in inhibiting specific ^3 H-Prazosin binding (difference between total and nonspecific binding), the test compounds are added to give 5 to 9 different concentrations between 1 nM and 10 μM, each in duplicate. […] The radioactivity of the filters is estimated by scintillation counting.

[3] = system: blood pressure or heart rate; assay: blood pressure / heart rate in anaesthetized normotonic rats; assay type: in vivo, female normotonic rats (Sprague-Dawley); conditions: Rattus norvegicus, iv, cumulative i.v. doses, by interpolation, read-out: ED75 (dose required to reduce the blood pressure or the heart rate to 75% of pretreatment values)
Description: In another test female normotonic rats (200-350 g, Sprague-Dawley, Suddeutsche Tierfarm, Tuttlingen, FRG) were anaesthetized with urethane (1.5-1.75 g/kg i.p. in 2 portions) and a tracheal cannula was inserted. Blood pressure and heart rate were recorded from the carotid artery by conventional methods. Test drugs were administered by the jugular or the femoral vein. Body temperature was maintained at 34° C. by means of a temperature regulator (Alfos MK-4) triggered by a thermistor on the animal. After adaptation, increasing doses of the test drug were injected i.v. to give the following cumulative doses: 3, 13, 43, 143, 343 and 1443 μg/kg. ED 75% is the dose required to reduce the blood pressure or the heart rate to 75% of pretreatment values. It was obtained through interpolation. The ED75 of the Example 3a compound is 524 μg/kg i.v.

T1 sequence (P20288 whole entry): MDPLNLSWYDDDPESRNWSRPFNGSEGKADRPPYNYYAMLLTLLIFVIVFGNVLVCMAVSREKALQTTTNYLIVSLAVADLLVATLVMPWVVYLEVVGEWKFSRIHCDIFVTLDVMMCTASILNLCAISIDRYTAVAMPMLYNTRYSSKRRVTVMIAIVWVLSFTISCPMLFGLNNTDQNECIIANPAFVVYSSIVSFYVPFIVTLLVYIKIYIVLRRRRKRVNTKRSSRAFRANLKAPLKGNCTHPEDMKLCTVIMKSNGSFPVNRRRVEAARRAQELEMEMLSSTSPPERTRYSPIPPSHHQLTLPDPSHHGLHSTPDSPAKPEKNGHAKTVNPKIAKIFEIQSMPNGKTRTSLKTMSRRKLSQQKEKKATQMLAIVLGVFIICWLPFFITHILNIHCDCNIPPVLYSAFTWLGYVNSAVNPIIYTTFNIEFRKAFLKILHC

pIC50 [1]	pIC50 (α1-receptors)	Structure (SMILES)	minimal effective dose (locomotion)	effect in the 3H-spiperone binding test compared with Clozapine [1]	Sleep phase II ([2]; 3.2 mg/kg po)	paradoxical sleep ([2]; 3.2 mg/kg po)	ED75 [3]	Sleep phase II ([2]; 10 mg/kg po)	paradoxical sleep ([2]; 10 mg/kg po)
6.46	–	O=C(CCCN1CCN(c2ncc3ccccc3n2)CC1)c1ccc(F)cc1 [Example 1, 4-[4-(Quinazolin-2-yl)-1-piperazinyl]-1-(4-fluorophenyl)-1-butanone]	3.3 mg/kg	stronger effects in the ^3 H-spiperone binding test than Clozapine	171 % of control	92 % of control	–	–	–
–	8.46	Cc1nc(N2CCN(CCCC(=O)c3ccc(F)cc3)CC2)nc2ccccc12 [Example 3a]	–	–	–	–	0.524 mg/kg	–	–
6.47	–	O=C(CCCN1CCN(c2nc(-c3ccccc3)c3ccccc3n2)CC1)c1ccc(F)cc1 [Example 3e]	< 3.2 mg/kg	stronger effects in the ^3 H-spiperone binding test than Clozapine	–	–	–	607 % of control	9 % of control
–	–	CN1CCN(C2=Nc3cc(Cl)ccc3Nc3ccccc32)CC1 [clozapine, reference compound]	3.2 mg/kg	–	–	–	–	483 % of control	26 % of control
